In US7414107B2, “Pharmacologically active peptide conjugates having a reduced tendency towards enzymatic hydrolysis” (priority 1998, dated 2008):
Where a SMILES comes first, the peptide text is derived from it. Where no end group is shown, it is not given here. [ ]: non-standard residue; d: D form. Dap = NC[C@H](N)C(=O)O

What was measured:
[1] = test system: guinea pig illeum; details: agonist, induced contraction, illeum not electrically stimulated
Experimental: Following application of the compounds the induced contraction was measured.

[2] = target: T1, carboxypeptidase A (Bos taurus, UniProt P00730); assay: Hydrolysis kinetics in carboxypeptidase A solution; assay type: in vitro ADME, bovine; details: 50 mM phosphate buffer pH 7.4, 37° C., carboxypeptidase A 1 U/ml
T1 construct: purchased Sigma, UK type I (catalogue number not given); host or cells: bovine pancreas
T1 sequence (P00730 111-419): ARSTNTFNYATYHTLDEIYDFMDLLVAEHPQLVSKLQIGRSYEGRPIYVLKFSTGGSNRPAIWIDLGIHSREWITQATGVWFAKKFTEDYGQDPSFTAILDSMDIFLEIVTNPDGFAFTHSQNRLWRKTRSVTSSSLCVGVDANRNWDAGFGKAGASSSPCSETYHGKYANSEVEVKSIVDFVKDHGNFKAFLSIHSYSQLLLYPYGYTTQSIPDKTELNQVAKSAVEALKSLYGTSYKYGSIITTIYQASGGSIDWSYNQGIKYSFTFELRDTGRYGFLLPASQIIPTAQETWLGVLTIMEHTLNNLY
Outline: (§1)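 Peptide conjugate or native peptide at ~0.1 mg/ml final (10^−5-10^−4M) incubated at 37° C in 50 mM phosphate pH 7.4 with leucine aminopeptidase (25 U/ml) or carboxypeptidase A (1 or 25 U/ml). Timed samples quenched with TFA/acetonitrile and quantified by RP-HPLC at 215 nm. t1/2 = ln2/kobs from first-order log plots.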

[3] = target: T2, leucine aminopeptidase (Sus scrofa, UniProt P28839); assay: Hydrolysis kinetics in leucine aminopeptidase solution; assay type: in vitro ADME, porcine; details: 50 mM phosphate buffer pH 7.4, 37° C., leucine aminopeptidase 25 U/ml; for half-life: pig
T2 construct: purchased Sigma, UK type III-CP (catalogue number not given); host or cells: porcine kidney
T2 sequence (P28839 1-519): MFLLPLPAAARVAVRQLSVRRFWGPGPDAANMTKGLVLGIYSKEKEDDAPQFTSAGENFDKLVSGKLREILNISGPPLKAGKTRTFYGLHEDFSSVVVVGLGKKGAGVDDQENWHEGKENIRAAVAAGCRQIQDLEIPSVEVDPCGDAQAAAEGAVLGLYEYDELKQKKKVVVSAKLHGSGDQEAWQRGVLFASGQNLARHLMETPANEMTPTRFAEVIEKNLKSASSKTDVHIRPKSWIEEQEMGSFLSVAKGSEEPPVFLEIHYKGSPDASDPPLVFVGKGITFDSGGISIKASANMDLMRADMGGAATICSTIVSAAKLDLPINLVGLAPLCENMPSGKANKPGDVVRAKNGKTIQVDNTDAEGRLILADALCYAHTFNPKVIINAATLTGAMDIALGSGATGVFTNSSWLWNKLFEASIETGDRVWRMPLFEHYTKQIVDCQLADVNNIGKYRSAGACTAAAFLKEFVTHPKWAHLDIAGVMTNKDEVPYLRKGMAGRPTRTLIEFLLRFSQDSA
Outline: as §1

[4] = Stability in mouse plasma at 37° C. (vas deferens bioassay readout)
Excerpt: (§2) Prior to addition of the plasma sample, a standard dose-response curve was generated in each preparation in order to express the inhibitory activity as concentration of each test substance. Thus, the calculated concentration is a reflection of inhibitory activity in the vas deferens bioassay preparation.
(§3) Where initial=initial […] contraction force prior to addition of test substance; conc=concentration of test substance; EC50=concentration of test substance that […] produced half maximal inhibition of electrically-induced contraction; background=contraction force during maximal relaxation.
All enkephalin analogues were dissolved in Krebs buffer in a concentration of 1 mM. Sixty-six μl of each test substance solution (66 nmol enkephalin analog) was incubated with 600 μl plasma at 37° C. […] Functional activity of each test substance in plasma was expressed as the concentration of the test substance that elicited the same inhibition of electrically-induced contraction in the vas deferens bioassay. T1/2 was calculated by fitting the time-concentration data to the equation: conc(t)=conc(0)·e^(−ln2/T1/2)·t where conc(0)=concentration at t=0.

[5] = test system: vas deferens; details: read-out: EC50 value; half maximal inhibition of electrically-induced contraction, mouse vas deferens
Experimental: (§4) In short: vasa deferentia were isolated from male mice weighing 20-30 g (Mellegaard breeding, DK) and suspended through two electrodes in 10 ml baths at resting tension of 1 g. […] The tissues were stimulated electrically (70 V, 1 ms duration; 0.1 Hz) and contractions were recorded isometrically on a chart recorder. After equilibration of the tissue for at least 20 min, drugs were added in the bath and the maximum effects were measured.
as §2, §3

[6] = Bioavailability in mice: functional activity in serum after p.o. or i.v. dosing (vas deferens bioassay)
Experimental: Blood samples were centrifuged immediately (3000 g, 4° C.) and serum was isolated and used for activity determination.
as §4

[7] = test system: PTH (1-34)-antibody; details: EIAS(h)-6101 from Peninsula Laboratories; cited from earlier work
[8] = test system: osteoblast; assay: Osteoblast retraction assay; assay type: cell-based, mice
Experimental: Retraction assays were performed with osteoblast prepared from calvaria of 1-day old mice according to published protocols (Miller et al., 1976, Science 192:1340-1343). In brief, osteoblasts were seeded in serum-free minimal essential medium-α (αMEM) at a density of 3000 cells per cm^2 into 96-well tissue culture plates coated with 50 μg/ml of type I collagen in phosphate-buffered saline containing 0.1% bovine serum albumin (PBS). One day after plating, PTH compounds were added to a final concentration of 10 nM and incubation was carried out for 1 h. Cells were then fixed and stained with toluidine blue, and the number of retracted cells was counted by visual inspection.

Molecule: CSCC[C@H](NC(=O)[C@H](CC(C)C)NC(=O)CNC(=O)[C@H](Cc1ccccc1)NC(=O)[C@H](Cc1ccccc1)NC(=O)[C@H](CCC(N)=O)NC(=O)[C@H](CCC(N)=O)NC(=O)[C@@H]1CCCN1C(=O)[C@H](CCCCN)NC(=O)[C@@H]1CCCN1C(=O)[C@@H](N)CCCNC(=N)N)C(N)=O [Substance P-NH2, H-Arg-Pro-Lys-Pro-Gln-Gln-Phe-Phe-Gly-Leu-Met-NH2, reference compound]
- EC50 [1]: 0.04 µM
- half-life [2]: 35 min
- pseudo first-order rate constant for the degradation [2]: 0.02 min⁻¹
- pseudo first-order rate constant for the degradation [3]: 0.045 min⁻¹
- half-life [3]: 16 min

Molecule: CC(C)C[C@H](NC(=O)[C@H](Cc1ccccc1)NC(=O)CNC(=O)CNC(=O)[C@@H](N)Cc1ccc(O)cc1)C(=O)N[C@@H](CN)C(=O)N[C@@H](CN)C(=O)N[C@@H](CN)C(=O)N[C@@H](CN)C(=O)N[C@@H](CN)C(=O)N[C@@H](CN)C(=O)O [Leu-Enkephalin-(Dpr)6-OH, H-Tyr-Gly-Gly-Phe-Leu-(Dpr)6-OH] (H-YGGFL[Dap][Dap][Dap][Dap][Dap][Dap]-OH)
- half-life at 99 µM ([4]; plasma): 19.8 min
- EC50 [5]: 0.2 µM
- half-life [2]: 29 min
- pseudo first-order rate constant for the degradation [2]: 0.024 min⁻¹
- pseudo first-order rate constant for the degradation [3]: 0.17 min⁻¹
- half-life [3]: 4.2 min

Molecule: H-KKKKKKRPKPQQFFGLM-NH2 [(Lys)6-Substance P-NH2, H-(Lys)6 Arg-Pro-Lys-Pro-Gln-Gln-Phe-Phe-Gly-Leu -Met-NH2]
- EC50 [1]: 0.005 µM
- pseudo first-order rate constant for the degradation [3]: 0.002 min⁻¹
- half-life [3]: 347 min

Molecule: YGGFLKKKKKK [Leu-Enkephalin-(Lys)6-OH, H-Tyr-Gly-Gly-Phe-Leu-Lys6-OH]
- half-life at 99 µM ([4]; plasma): 18.7 min
- EC50 [5]: 0.16 µM
- Functional activity in serum ([6]; 50 mg/kg i.v., 5 min): 15.9 ± 2.4 µM
- Functional activity in serum ([6]; 50 mg/kg i.v., 15 min): 8.5 ± 1.2 µM
- Functional activity in serum ([6]; 50 mg/kg i.v., 30 min): 6 ± 0.95 µM
- Functional activity in serum ([6]; 50 mg/kg i.v., 60 min): 1.6 ± 0.34 µM
- Functional activity in serum ([6]; 50 mg/kg i.v., 180 min): 0.44 ± 0.11 µM
- Functional activity in serum ([6]; 50 mg/kg i.v., 240 min): 2.5 ± 0.32 µM
- Functional activity in serum ([6]; 50 mg/kg i.v., 370 min): 31.2 ± 8.62 µM
- Functional activity in serum ([6]; 50 mg/kg i.v., 720 min): <Detection Limit
- Functional activity in serum ([6]; 50 mg/kg i.v., 1080 min): <Detection Limit
- Functional activity in serum ([6]; 50 mg/kg i.v., 1440 min): <Detection Limit
- time at which activity in serum reached a maximum ([6]; 50 mg/kg p.o.): 90 to 240 min
- Functional activity in serum ([6]; 50 mg/kg p.o., 0 min): 0 µM
- Functional activity in serum ([6]; 50 mg/kg p.o., 15 min): <Detection Limit
- Functional activity in serum ([6]; 50 mg/kg p.o., 30 min): 3 ± 0.8 µM
- Functional activity in serum ([6]; 50 mg/kg p.o., 60 min): 6 ± 1.3 µM
- Functional activity in serum ([6]; 50 mg/kg p.o., 90 min): 10.9 ± 3.8 µM
- Functional activity in serum ([6]; 50 mg/kg p.o., 240 min): 10.7 ± 0.23 µM
- Functional activity in serum ([6]; 50 mg/kg p.o., 480 min): 5 ± 0.58 µM
- Functional activity in serum ([6]; 50 mg/kg p.o., 960 min): 2.8 ± 0.78 µM
- Functional activity in serum ([6]; 50 mg/kg p.o., 1380 min): <Detection Limit
- pseudo first-order rate constant for the degradation [2]: 0.0007 min⁻¹
- half-life ([2]; cattle, carboxypeptidase A solution (1 U/ml) in phosphate buffer): 990 min
- pseudo first-order rate constant for the degradation [3]: 0.0097 min⁻¹
- half-life [3]: 72 min

Molecule: hPTH(39-68): human PTH fragment listed in the EIA kit specificity (APLAPRDAGSQRPRKKEDNVLVESHEKSLG; Parathyroid hormone; UniProt P01270 70-99, looked up, fragment)
- Specificity of the assay [7]: 0%

Molecule: CC[C@H](C)[C@H](NC(=O)[C@H](CCC(=O)O)NC(=O)[C@H](CO)NC(=O)[C@@H](NC(=O)[C@@H](N)CO)C(C)C)C(=O)N[C@@H](CCC(N)=O)C(=O)N[C@@H](CC(C)C)C(=O)N[C@@H](CCSC)C(=O)N[C@@H](Cc1c[nH]cn1)C(=O)N[C@@H](CC(N)=O)C(=O)N[C@@H](CC(C)C)C(=O)NCC(=O)N[C@@H](CCCCN)C(=O)N[C@@H](Cc1c[nH]cn1)C(=O)N[C@@H](CC(C)C)C(=O)N[C@@H](CC(N)=O)C(=O)N[C@@H](CO)C(=O)N[C@@H](CCSC)C(=O)N[C@@H](CCC(=O)O)C(=O)N[C@@H](CCCNC(=N)N)C(=O)N[C@H](C(=O)N[C@@H](CCC(=O)O)C(=O)N[C@@H](Cc1c[nH]c2ccccc12)C(=O)N[C@@H](CC(C)C)C(=O)N[C@@H](CCCNC(=N)N)C(=O)N[C@@H](CCCCN)C(=O)N[C@@H](CCCCN)C(=O)N[C@@H](CC(C)C)C(=O)N[C@@H](CCC(N)=O)C(=O)N[C@@H](CC(=O)O)C(=O)N[C@H](C(=O)N[C@@H](Cc1c[nH]cn1)C(=O)N[C@@H](CC(N)=O)C(=O)N[C@@H](Cc1ccccc1)C(=O)O)C(C)C)C(C)C [PTH(1-34)(Human)-OH, H-Ser-Val-Ser-Glu-Ile-Gln-Leu-Met-His-Asn-Leu-Gly-Lys -His-Leu-Asn-Ser-Met-Glu-Arg-Val-Glu-Trp-Leu-Arg-Lys-Lys-Leu-Gln-Asp-Val-His -Asn-Phe-OH, reference compound]
- Specificity of the assay [7]: 100%
- Retraction assay % Retracted cells ([8]; 10 nM, 1 h, mouse calvaria osteoblasts): 58.2%
- activity relative to native, human parathyroid hormone ([8]; Osteoblast retraction assay): approximately 89%
- half-life [2]: 0.13 min
- pseudo first-order rate constant for the degradation [2]: 5.2 min⁻¹
- pseudo first-order rate constant for the degradation [3]: 0.0021 min⁻¹
- half-life [3]: 330 min

Molecule: ratPTH(1-34): rat PTH fragment listed in the EIA kit specificity (AVSEIQLMHNLGKHLASVERMQWLRKKLQDVHNF; Parathyroid hormone; UniProt P04089 32-65, looked up, fragment)
- Specificity of the assay [7]: 0%

Molecule: H-YGGFLKEEEEK-OH [Leu-Enkephalin-(Lys-Glu4-Lys)-OH, H-Tyr-Gly-Gly-Phe-Leu-Lys-Glu-Glu-Glu-Glu-Lys--OH]
- half-life at 99 µM ([4]; mouse plasma): 84.5 min
- EC50 [5]: 0.357 µM
- half-life [2]: 1160 min
- pseudo first-order rate constant for the degradation [2]: 0.0006 min⁻¹
- pseudo first-order rate constant for the degradation [3]: 0.065 min⁻¹
- half-life [3]: 11 min

B1: hPTH(1-84): full-length human PTH listed in the EIA kit specificity (protein, UniProt P01270 32-115, looked up)
Parathyroid hormone: SVSEIQLMHNLGKHLNSMERVEWLRKKLQDVHNFVALGAPLAPRDAGSQRPRKKEDNVLVESHEKSLGEADKADVNVLTKAKSQ
modifications: Parathyroid hormone
- Specificity of the assay [7]: 0%
